Several values for one entry are separate records, joined by “and”; a condition that tells them apart may be missing. Equal values may be shown once. Inconclusive results and toxic doses are left out. The calls were made as follows: active = survival T/C of 150% or more; inactive = T/C below 125% in these data.
System: P388 leukemia ip, CD2F1 mice, survival T/C
Assay: NCI In Vivo Anticancer Drug Screen. Data for tumor model P388 Leukemia (intraperitoneal) in CD2F1 (CDF1) mice
Details: endpoint: median survival time, higher = longer survival
Outline: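 Mice carrying the transplanted tumor received test compound or vehicle. Survival was recorded in each group, and the value is the treated-group measurement divided by that of the vehicle-treated control group.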

[1] = dose: 100.0 mg/kg/injection, schedule: Q01DX001 (ip), vehicle: Klucel (hydroxypropylcellulose) (HPC)
[2] = dose: 60.0 mg/kg/injection, schedule: Q01DX005 (ip), vehicle: saline with Tween-80
[3] = dose: 120.0 mg/kg/injection, schedule: Q01DX005 (ip), vehicle: saline with Tween-80
[4] = dose: 240.0 mg/kg/injection, schedule: Q01DX005 (ip), vehicle: saline with Tween-80
[5] = dose: 100.0 mg/kg/injection, schedule: Q04DX003 (ip), vehicle: saline with Tween-80
[6] = dose: 200.0 mg/kg/injection, schedule: Q04DX003 (ip), vehicle: saline with Tween-80
[7] = dose: 400.0 mg/kg/injection, schedule: Q04DX003 (ip), vehicle: saline with Tween-80
[8] = dose: 60.0 mg/kg/injection, schedule: Q01DX005 (ip), vehicle: Klucel (hydroxypropylcellulose) (HPC)
[9] = dose: 120.0 mg/kg/injection, schedule: Q01DX005 (ip), vehicle: Klucel (hydroxypropylcellulose) (HPC)
[10] = dose: 200.0 mg/kg/injection, schedule: Q01DX005 (ip), vehicle: saline with Tween-80

Measured: T/C

CCOC1=C(C)C(N(CC)CC)=NS(=O)(=O)c2ccccc21
inactive: [1] 99 % of control | dose: 200.0 mg/kg/injection, schedule: Q01DX001 (ip), vehicle: Klucel (hydroxypropylcellulose) (HPC) 103 % of control | dose: 400.0 mg/kg/injection, schedule: Q01DX001 (ip), vehicle: Klucel (hydroxypropylcellulose) (HPC) 98 % of control

N#Cc1c(-c2ccccc2)cn2c1[nH]c(=O)c1c3c(sc12)CCCC3
inactive: [2] 88 % of control and 89 % of control | [3] 87 % of control | [4] 86 % of control and 87 % of control

O=c1[nH]c2cc([N+](=O)[O-])ccc2nc1/C=C(\O)c1cccc([N+](=O)[O-])c1
inactive: dose: 30.0 mg/kg/injection, schedule: Q01DX005 (ip), vehicle: Klucel + Tween-80 96 % of control | dose: 60.0 mg/kg/injection, schedule: Q01DX005 (ip), vehicle: Klucel + Tween-80 88 % of control and 90 % of control | dose: 120.0 mg/kg/injection, schedule: Q01DX005 (ip), vehicle: Klucel + Tween-80 87 % of control | dose: 240.0 mg/kg/injection, schedule: Q01DX005 (ip), vehicle: Klucel + Tween-80 89 % of control

C=C1C(=O)OC2C1CCC(=C)C1CC(OC3OC(CO)C(O)C(O)C3O)C(=C)C12 (stereo not drawn)
inactive: dose: 50.0 mg/kg/injection, schedule: Q04DX003 (ip), vehicle: saline with Tween-80 93 % of control | [5] 105 % of control and 86 % of control | [6] 104 % of control | [7] 104 % of control and 124 % of control

O=S(=O)(Nc1ccc(Br)cc1)c1ccccc1
inactive: dose: 100.0 mg/kg/injection, schedule: Q01DX009 (ip), vehicle: saline with Tween-80 100 % of control | [5] 100 % of control | dose: 200.0 mg/kg/injection, schedule: Q01DX009 (ip), vehicle: saline with Tween-80 90 % of control | [6] 95 % of control | dose: 400.0 mg/kg/injection, schedule: Q01DX009 (ip), vehicle: saline with Tween-80 100 % of control | [7] 91 % of control

COc1cc(OC)cc(C2OC3=C(Nc4ccccc4N3)C2=O)c1 (stereo not drawn)
inactive: [8] 93 % of control | [9] 89 % of control

Cc1cccc(N2C(=O)CSC2=S)c1
inactive: dose: 12.5 mg/kg/injection, schedule: Q01DX009 (ip), vehicle: saline with Tween-80 109 % of control | dose: 25.0 mg/kg/injection, schedule: Q01DX009 (ip), vehicle: saline with Tween-80 100 % of control | dose: 50.0 mg/kg/injection, schedule: Q01DX009 (ip), vehicle: saline with Tween-80 103 % of control

COc1ccc2nc(C)c(C(=O)O)c(C(=O)O)c2c1
inactive: dose: 50.0 mg/kg/injection, schedule: Q01DX009 (ip), vehicle: suspension in saline 99 % of control | dose: 100.0 mg/kg/injection, schedule: Q01DX009 (ip), vehicle: suspension in saline 103 % of control | dose: 200.0 mg/kg/injection, schedule: Q01DX009 (ip), vehicle: suspension in saline 108 % of control

C#CCNC(=O)/C(C)=C(\C)c1ccc(F)cc1
inactive: dose: 50.0 mg/kg/injection, schedule: Q04DX002 (ip), vehicle: Klucel (hydroxypropylcellulose) (HPC) 101 % of control | dose: 100.0 mg/kg/injection, schedule: Q04DX002 (ip), vehicle: Klucel (hydroxypropylcellulose) (HPC) 103 % of control | dose: 200.0 mg/kg/injection, schedule: Q04DX002 (ip), vehicle: Klucel (hydroxypropylcellulose) (HPC) 111 % of control

COC(=O)CCC(C(C)=O)C(=O)OC (stereo not drawn)
inactive: dose: 60.0 mg/kg/injection, schedule: Q01DX005 (ip), vehicle: saline 105 % of control | dose: 120.0 mg/kg/injection, schedule: Q01DX005 (ip), vehicle: saline 110 % of control | dose: 240.0 mg/kg/injection, schedule: Q01DX005 (ip), vehicle: saline 107 % of control

CCOCC(=O)C1(O)Cc2c(O)c3c(c(O)c2C(O)C1)C(=O)c1c(OC)cccc1C3=O (stereo not drawn)
inactive: dose: 1.56 mg/kg/injection, schedule: Q01DX009 (ip), vehicle: other 101 % of control | dose: 3.13 mg/kg/injection, schedule: Q01DX009 (ip), vehicle: other 100 % of control | dose: 6.25 mg/kg/injection, schedule: Q01DX009 (ip), vehicle: other 100 % of control | dose: 12.5 mg/kg/injection, schedule: Q01DX009 (ip), vehicle: other 95 % of control | dose: 25.0 mg/kg/injection, schedule: Q01DX009 (ip), vehicle: other 103 % of control

CCOC(=O)C1(C#N)C(c2ccccc2)C(OC)(OC)C1(OC)OC (stereo not drawn)
inactive: [8] 100 % of control | [9] 102 % of control | dose: 240.0 mg/kg/injection, schedule: Q01DX005 (ip), vehicle: Klucel (hydroxypropylcellulose) (HPC) 99 % of control

ClC(Cl)(Cl)CN1CCCCC1Cc1ccccc1 (stereo not drawn)
inactive: dose: 30.0 mg/kg/injection, schedule: Q01DX005 (ip), vehicle: Klucel (hydroxypropylcellulose) (HPC) 101 % of control | [8] 100 % of control

CC(=O)O[C@H]1CC[C@H]2[C@@H]3CCC(=O)CC(=O)CCC(=O)[C@H]3CC[C@]12C
inactive: dose: 50.0 mg/kg/injection, schedule: Q01DX005 (ip), vehicle: Klucel (hydroxypropylcellulose) (HPC) 108 % of control | dose: 100.0 mg/kg/injection, schedule: Q01DX005 (ip), vehicle: Klucel (hydroxypropylcellulose) (HPC) 109 % of control | dose: 200.0 mg/kg/injection, schedule: Q01DX005 (ip), vehicle: Klucel (hydroxypropylcellulose) (HPC) 105 % of control

OCC1OC(C2N(c3ccccc3)CCN2c2ccccc2)C(O)C1O (stereo not drawn)
inactive: dose: 12.5 mg/kg/injection, schedule: Q01DX009 (ip), vehicle: distilled water + Tween-80 102 % of control | dose: 25.0 mg/kg/injection, schedule: Q01DX009 (ip), vehicle: distilled water + Tween-80 100 % of control | dose: 50.0 mg/kg/injection, schedule: Q01DX009 (ip), vehicle: distilled water + Tween-80 98 % of control | dose: 100.0 mg/kg/injection, schedule: Q01DX009 (ip), vehicle: distilled water + Tween-80 90 % of control | dose: 200.0 mg/kg/injection, schedule: Q01DX009 (ip), vehicle: distilled water + Tween-80 93 % of control

COc1cc(/C=C/C(=O)c2ccc(Nc3ccnc4cc(Cl)ccc34)cc2)cc(OC)c1OC
inactive: dose: 100.0 mg/kg/injection, schedule: Q01DX001 (ip), vehicle: saline with Tween-80 102 % of control | dose: 200.0 mg/kg/injection, schedule: Q01DX001 (ip), vehicle: saline with Tween-80 97 % of control | dose: 400.0 mg/kg/injection, schedule: Q01DX001 (ip), vehicle: saline with Tween-80 93 % of control

C[Se]C([Se]C)=C([Se]C)[Se]C
inactive: dose: 15.0 mg/kg/injection, schedule: Q01DX005 (ip), vehicle: saline with Tween-80 107 % of control | dose: 30.0 mg/kg/injection, schedule: Q01DX005 (ip), vehicle: saline with Tween-80 108 % of control | [2] 100 % of control and 91 % of control

CN(C)CCN1C(=O)C2(C)C3CCC(O3)C2(C)C1=O (stereo not drawn)
inactive: dose: 50.0 mg/kg/injection, schedule: Q01DX005 (ip), vehicle: saline with Tween-80 103 % of control | dose: 100.0 mg/kg/injection, schedule: Q01DX005 (ip), vehicle: saline with Tween-80 100 % of control | [10] 100 % of control

CCOC(=O)/C=C1\CONC(c2ccc(OC)cc2)=N1
inactive: [2] 106 % of control | [3] 97 % of control | [4] 105 % of control

C=CC[n+]1cc2c3ccccc3c(N)cc2c2ccccc21
inactive: dose: 1.56 mg/kg/injection, schedule: Q04DX003 (ip), vehicle: water 107 % of control | dose: 3.13 mg/kg/injection, schedule: Q04DX003 (ip), vehicle: water 116 % of control | dose: 6.25 mg/kg/injection, schedule: Q04DX003 (ip), vehicle: water 114 % of control | dose: 12.5 mg/kg/injection, schedule: Q04DX003 (ip), vehicle: other 106 % of control | dose: 12.5 mg/kg/injection, schedule: Q04DX003 (ip), vehicle: water 109 % of control

CSC(=S)n1nc(C)c(N=Nc2cc(Cl)ccc2Cl)c1C
inactive: dose: 6.25 mg/kg/injection, schedule: Q01DX005 (ip), vehicle: saline with Tween-80 93 % of control | dose: 12.5 mg/kg/injection, schedule: Q01DX005 (ip), vehicle: saline with Tween-80 99 % of control | dose: 25.0 mg/kg/injection, schedule: Q01DX005 (ip), vehicle: saline with Tween-80 95 % of control | [10] 98 % of control

CNC(=O)On1cc(Cl)cc1C#N
inactive: dose: 50.0 mg/kg/injection, schedule: Q01DX001 (ip), vehicle: Klucel (hydroxypropylcellulose) (HPC) 101 % of control | [1] 118 % of control

O=C(c1ccccc1)C12CCC(CC1)CC2
inactive: dose: 50.0 mg/kg/injection, schedule: Q01DX009 (ip), vehicle: Klucel (hydroxypropylcellulose) (HPC) 94 % of control | dose: 100.0 mg/kg/injection, schedule: Q01DX009 (ip), vehicle: Klucel (hydroxypropylcellulose) (HPC) 94 % of control | dose: 200.0 mg/kg/injection, schedule: Q01DX009 (ip), vehicle: Klucel (hydroxypropylcellulose) (HPC) 109 % of control
